Columns and labels:
[1] = test system: mRCC patients; test: Progression-free and overall survival on first-line sunitinib (Kaplan-Meier, Cox regression); type: in vivo, human; settings: for Overall survival HR multivariate / Progression-free survival HR multivariate: starting dose as covariate
Description: (§1) Twelve patients in this study received a starting dose of 50 mg daily. Six patients started with 25 mg daily due to advanced age or patients' aversion to expected toxicities.
(§2) Genotype associations with toxicity events or responsive tumor were first analyzed using univariate logistic regression. Genotypes generating P<0.20 were further analyzed using multivariate logistic regression including patient age, gender, baseline ECOG status and starting dose as covariates. Progression-free survival and overall survival were estimated by means of Kaplan-Meier method, while the associations of genotypes and patient characteristics with PFS and OS were analyzed using two-tailed log rank test. The effects of genotypes on the progression-free survival and overall survival were then evaluated using multivariate Cox regression model by including genotypes and patient characteristics with P<0.05 in univariate analysis. […] In all analyses, missing data were kept missing except for baseline ECOG status, which was replaced with the median value. As this was designed as a validation study of previously observed correlations rather than an exploratory evaluation, multiple testing correction was not done.

[2] = test system: mRCC patients; test: Tumor response to sunitinib (RECIST version 1.1), clinical benefit / primary resistance; type: in vivo, human
Description: as §1
Patient characteristics were also collected including age, gender, ethnicity, body weight and height, and Eastern Cooperative Oncology Group (ECOG) performance status. Memorial Sloan-Kettering Cancer Center (MSKCC) prognostic score was calculated for each patient with available data. All the collected data were de-identified by a third party before being used in statistical analysis. The follow-up period ended at the end of April, 2014.
as §2

[3] = ABCB1 haplotype TTT/TTT (homozygous carriers)
[4] = ABCB1 haplotype TTT/TTT vs Other

Structure (SMILES): CCN(CC)CCNC(=O)c1c(C)[nH]c(/C=C2\C(=O)Nc3ccc(F)cc32)c1C [sunitinib]
- Median overall survival ([1]; ABCB1 1236 T/C CC + CT): 20 months
- Median progression-free survival ([1]; ABCB1 1236 T/C CC + CT): 11.7 months
- Median overall survival ([1]; ABCB1 1236 T/C TT): 10.4 months
- Median progression-free survival ([1]; ABCB1 1236 T/C TT): 3.6 months
- Overall survival HR univariate ([1]; ABCB1 1236 TT vs CC + CT): 1.7
- Progression-free survival HR univariate ([1]; ABCB1 1236 TT vs CC + CT): 1.7
- Overall survival HR multivariate ([1]; ABCB1 1236 TT vs CC + CT): 1.7
- Progression-free survival HR multivariate ([1]; ABCB1 1236 TT vs CC + CT): 1.7
- Median overall survival ([1]; ABCB1 2677 G/TA Other): 19.6 months
- Median progression-free survival ([1]; ABCB1 2677 G/TA Other): 8.4 months
- Median overall survival ([1]; ABCB1 2677 G/TA TT): 5.9 months
- Median progression-free survival ([1]; ABCB1 2677 G/TA TT): 2.7 months
- Overall survival HR univariate ([1]; ABCB1 2677 TT vs Other): 2.9
- Progression-free survival HR univariate ([1]; ABCB1 2677 TT vs Other): 2.3
- Overall survival HR multivariate ([1]; ABCB1 2677 TT vs Other): 2.0
- Progression-free survival HR multivariate ([1]; ABCB1 2677 TT vs Other): 1.5
- Median overall survival ([1]; ABCB1 3435 C/T CC + CT): 19.5 months
- Median progression-free survival ([1]; ABCB1 3435 C/T CC + CT): 8.4 months
- Median overall survival ([1]; ABCB1 3435 C/T TT): 7.2 months
- Median progression-free survival ([1]; ABCB1 3435 C/T TT): 2.7 months
- Overall survival HR univariate ([1]; ABCB1 3435 TT vs CC + CT): 1.6
- Progression-free survival HR univariate ([1]; ABCB1 3435 TT vs CC + CT): 1.7
- Overall survival HR multivariate ([1]; ABCB1 3435 TT vs CC + CT): 1.7
- Progression-free survival HR multivariate ([1]; ABCB1 3435 TT vs CC + CT): 1.7
- Median overall survival ([1]; ABCB1 haplotype Other): 19.6 months
- Median progression-free survival ([1]; ABCB1 haplotype Other): 8.4 months
- Median overall survival [1, 3]: 4.6 months
- Median progression-free survival [1, 3]: 2.4 months
- Overall survival HR univariate [1, 4]: 3.9
- Progression-free survival HR univariate [1, 4]: 4.9
- Overall survival HR multivariate [1, 4]: 5.0
- Progression-free survival HR multivariate [1, 4]: 5.5
- Overall survival HR univariate ([1]; Age): 1.0
- Progression-free survival HR univariate ([1]; Age): 1.0
- Median overall survival ([1]; Baseline ECOG 0): 32.9 months
- Median progression-free survival ([1]; Baseline ECOG 0): 16.1 months
- Median overall survival ([1]; Baseline ECOG 1): 19.6 months
- Median progression-free survival ([1]; Baseline ECOG 1): 6.9 months
- Overall survival HR univariate ([1]; Baseline ECOG 1 vs 0): 1.9
- Progression-free survival HR univariate ([1]; Baseline ECOG 1 vs 0): 2.2
- Median overall survival ([1]; Baseline ECOG 2): 5.7 months
- Median progression-free survival ([1]; Baseline ECOG 2): 3.3 months
- Overall survival HR univariate ([1]; Baseline ECOG 2 vs 0): 3.0
- Progression-free survival HR univariate ([1]; Baseline ECOG 2 vs 0): 2.8
- Median overall survival ([1]; Baseline ECOG 3): 15.7 months
- Median progression-free survival ([1]; Baseline ECOG 3): 12.9 months
- Overall survival HR univariate ([1]; Baseline ECOG 3 vs 0): 2.7
- Progression-free survival HR univariate ([1]; Baseline ECOG 3 vs 0): 2.8
- Median overall survival ([1]; Gender Female): 19.9 months
- Median progression-free survival ([1]; Gender Female): 10.0 months
- Median overall survival ([1]; Gender Male): 16.3 months
- Median progression-free survival ([1]; Gender Male): 8.1 months
- Median overall survival ([1]; MSKCC Good): 41.4 months
- Median progression-free survival ([1]; MSKCC Good): 12.6 months
- Median overall survival ([1]; MSKCC Intermediate): 19.6 months
- Median progression-free survival ([1]; MSKCC Intermediate): 10.0 months
- Overall survival HR univariate ([1]; MSKCC Intermediate vs Good): 2.2
- Progression-free survival HR univariate ([1]; MSKCC Intermediate vs Good): 1.3
- Median overall survival ([1]; MSKCC Poor): 14 months
- Median progression-free survival ([1]; MSKCC Poor): 5.5 months
- Overall survival HR univariate ([1]; MSKCC Poor vs Good): 3.1
- Progression-free survival HR univariate ([1]; MSKCC Poor vs Good): 2.3
- Overall survival HR univariate ([1]; Male vs Female): 1.1
- Progression-free survival HR univariate ([1]; Male vs Female): 1.1
- Median overall survival ([1]; Starting dose 37.5 mg): 19.5 months
- Median progression-free survival ([1]; Starting dose 37.5 mg): 8.3 months
- Median overall survival ([1]; Starting dose 50 mg): 47.4 months
- Median progression-free survival ([1]; Starting dose 50 mg): 17.3 months
- Overall survival HR univariate ([1]; Starting dose 37.5 vs ≦37.5 mg): 0.2
- Overall survival HR univariate ([1]; Starting dose 50 vs ≦37.5 mg): 0.1
- Median overall survival ([1]; Starting dose ≦37.5 mg): 4.6 months
- Median progression-free survival ([1]; Starting dose ≦37.5 mg): 1.8 months
- Median overall survival ([1]; all 81 first-line patients): 19.5 months
- Median progression-free survival ([1]; all 81 first-line patients): 8.1 months
- Clinical benefit prevalence ([2]; ABCB1 2677 G/TA Other): 55/79
- Clinical benefit prevalence ([2]; ABCB1 2677 G/TA TT): 4/11
- Clinical benefit OR multivariate ([2]; ABCB1 2677 TT vs Other): 0.1
- Clinical benefit OR univariate ([2]; ABCB1 2677 TT vs Other): 0.3
- Clinical benefit prevalence ([2]; ABCB1 3435 C/T CC + CT): 54/78
- Clinical benefit prevalence ([2]; ABCB1 3435 C/T TT): 5/12
- Clinical benefit OR multivariate ([2]; ABCB1 3435 TT vs CC + CT): 0.2
- Clinical benefit OR univariate ([2]; ABCB1 3435 TT vs CC + CT): 0.3
- Clinical benefit prevalence ([2]; ABCB1 haplotype Other): 57/82
- Clinical benefit prevalence ([2]; ABCB1 haplotype TTT/TTT): 2/8
- Clinical benefit OR multivariate [2, 4]: 0.1
- Clinical benefit OR univariate [2, 4]: 0.2
- Clinical benefit OR univariate ([2]; Age): 1.0
- Clinical benefit prevalence ([2]; Baseline ECOG 0): 20/25
- Clinical benefit prevalence ([2]; Baseline ECOG 1): 31/49
- Clinical benefit OR univariate ([2]; Baseline ECOG 1 vs 0): 0.4
- Clinical benefit prevalence ([2]; Baseline ECOG 2): 5/11
- Clinical benefit OR univariate ([2]; Baseline ECOG 2 vs 0): 0.2
- Clinical benefit prevalence ([2]; Baseline ECOG 3): 3/5
- Clinical benefit OR univariate ([2]; Baseline ECOG 3 vs 0): 0.4
- Clinical benefit OR univariate ([2]; Female vs Male): 1.2
- Clinical benefit prevalence ([2]; Gender Female): 13/19
- Clinical benefit prevalence ([2]; Gender Male): 46/71
- Clinical benefit prevalence ([2]; Starting dose 37.5 mg): 49/75
- Clinical benefit prevalence ([2]; Starting dose 50 mg): 9/11
- Clinical benefit OR univariate ([2]; Starting dose 37.5 vs ≦37.5 mg): 5.7
- Clinical benefit prevalence ([2]; Starting dose ≦37.5 mg): 1/4
- Clinical benefit prevalence (cases with PR or SD as best response/total in group) ([2]; all patients (n = 90)): 59/90

Source: patent US20160251725A1, “METHOD FOR PREDICTING CLINICAL TOXICITY AND OUTCOME” (AGENCY FOR SCIENCE, TECHNOLOGY AND RESEARCH, priority 2013, published 2016)
